For assay [1], the target named is ELAV-like protein 1 (Homo sapiens, UniProt Q15717). Put plainly: Identify HuR specific inhibitors. It counts as functional.
Assay [2] concerns HEK293. The assay can be described thus: NOD2 signaling inhibitors in MDP-stimulated cells, cell-based, uHTS, luminescence (AID 2001). Format: functional. Conditions: Homo sapiens.
The test system of assay [3] is HEK293. The assay can be described thus: cells. It counts as functional, cell-based. Conditions: Homo sapiens.
In assay [4] the test system is HEK293. Put plainly: cells. Format: functional, cell-based. Conditions: Homo sapiens. The source holds these as a separate data set.
For assay [5], the system named is HEK293. The assay can be described thus: cells. Particulars: Homo sapiens.
Assay [6] has as its target T1, Nucleotide-binding oligomerization domain-containing protein 1 (Homo sapiens, UniProt Q9Y239).
T1 sequence (Q9Y239 whole entry): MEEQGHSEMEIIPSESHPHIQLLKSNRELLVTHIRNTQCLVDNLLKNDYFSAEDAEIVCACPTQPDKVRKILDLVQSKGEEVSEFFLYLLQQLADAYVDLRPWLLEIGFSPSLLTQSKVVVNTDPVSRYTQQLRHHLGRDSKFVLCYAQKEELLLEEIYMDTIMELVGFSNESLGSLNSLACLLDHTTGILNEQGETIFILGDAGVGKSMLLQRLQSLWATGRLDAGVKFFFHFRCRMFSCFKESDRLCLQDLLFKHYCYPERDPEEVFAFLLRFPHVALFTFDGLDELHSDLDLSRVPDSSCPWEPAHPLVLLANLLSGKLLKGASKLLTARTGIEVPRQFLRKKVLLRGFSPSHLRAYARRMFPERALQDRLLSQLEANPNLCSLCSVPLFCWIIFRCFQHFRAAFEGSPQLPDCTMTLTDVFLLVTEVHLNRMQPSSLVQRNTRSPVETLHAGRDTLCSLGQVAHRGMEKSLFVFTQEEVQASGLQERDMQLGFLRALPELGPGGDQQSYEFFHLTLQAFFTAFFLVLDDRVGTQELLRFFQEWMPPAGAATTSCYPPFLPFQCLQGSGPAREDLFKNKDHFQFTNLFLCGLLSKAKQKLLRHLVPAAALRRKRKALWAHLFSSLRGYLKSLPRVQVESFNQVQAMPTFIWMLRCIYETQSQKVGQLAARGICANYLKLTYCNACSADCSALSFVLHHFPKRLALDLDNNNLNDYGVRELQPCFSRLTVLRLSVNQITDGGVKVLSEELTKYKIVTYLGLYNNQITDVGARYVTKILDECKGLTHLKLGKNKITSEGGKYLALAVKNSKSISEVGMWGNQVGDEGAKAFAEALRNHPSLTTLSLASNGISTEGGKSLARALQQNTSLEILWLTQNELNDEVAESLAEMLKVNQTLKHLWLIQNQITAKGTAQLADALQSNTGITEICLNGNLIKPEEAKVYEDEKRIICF
The assay can be described thus: NOD1 signaling inhibitors, SAR follow-up, revised (AID 2333). It counts as functional.

Assay [7] concerns the target Tumor necrosis factor (Homo sapiens, UniProt P01375). The assay can be described thus: TNFa-triggered NF-kB activation inhibitors, SAR follow-up, cell-based, revised (AID 2337). Format: functional.
Assay [8] deals with HEK293. Put plainly: NOD1 signaling inhibitors, primary screen, cell-based, luminescence, uHTS (AID 1578). Format: functional. Conditions: Homo sapiens.
Assay [9] has as its target T2, Caspase-3 (Homo sapiens, UniProt P42574).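 Note: Dose-response selectivity test against caspase-3 for candidate inhibitors of sentrin-specific proteases (SENPs).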
T2 sequence (P42574 whole entry): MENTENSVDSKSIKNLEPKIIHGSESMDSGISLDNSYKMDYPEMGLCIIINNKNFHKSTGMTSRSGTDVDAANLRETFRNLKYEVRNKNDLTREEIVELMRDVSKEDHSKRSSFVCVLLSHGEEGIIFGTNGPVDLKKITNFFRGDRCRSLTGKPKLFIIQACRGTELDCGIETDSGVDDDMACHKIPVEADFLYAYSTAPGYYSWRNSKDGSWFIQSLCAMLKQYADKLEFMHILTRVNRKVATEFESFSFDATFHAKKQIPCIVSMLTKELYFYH
Format: functional.

The target in assay [10] is Dual specificity tyrosine-phosphorylation-regulated kinase 1A (Rattus norvegicus, UniProt Q63470). Format: biochemical, Homo sapiens.
The target of assay [11] is T3, Sentrin-specific protease 7 (Homo sapiens, UniProt Q9BQF6).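 Note: Luminescence-based dose-response confirmation of ultra-high-throughput screening hits, measuring inhibition of SENP7.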
T3 sequence (Q9BQF6 whole entry): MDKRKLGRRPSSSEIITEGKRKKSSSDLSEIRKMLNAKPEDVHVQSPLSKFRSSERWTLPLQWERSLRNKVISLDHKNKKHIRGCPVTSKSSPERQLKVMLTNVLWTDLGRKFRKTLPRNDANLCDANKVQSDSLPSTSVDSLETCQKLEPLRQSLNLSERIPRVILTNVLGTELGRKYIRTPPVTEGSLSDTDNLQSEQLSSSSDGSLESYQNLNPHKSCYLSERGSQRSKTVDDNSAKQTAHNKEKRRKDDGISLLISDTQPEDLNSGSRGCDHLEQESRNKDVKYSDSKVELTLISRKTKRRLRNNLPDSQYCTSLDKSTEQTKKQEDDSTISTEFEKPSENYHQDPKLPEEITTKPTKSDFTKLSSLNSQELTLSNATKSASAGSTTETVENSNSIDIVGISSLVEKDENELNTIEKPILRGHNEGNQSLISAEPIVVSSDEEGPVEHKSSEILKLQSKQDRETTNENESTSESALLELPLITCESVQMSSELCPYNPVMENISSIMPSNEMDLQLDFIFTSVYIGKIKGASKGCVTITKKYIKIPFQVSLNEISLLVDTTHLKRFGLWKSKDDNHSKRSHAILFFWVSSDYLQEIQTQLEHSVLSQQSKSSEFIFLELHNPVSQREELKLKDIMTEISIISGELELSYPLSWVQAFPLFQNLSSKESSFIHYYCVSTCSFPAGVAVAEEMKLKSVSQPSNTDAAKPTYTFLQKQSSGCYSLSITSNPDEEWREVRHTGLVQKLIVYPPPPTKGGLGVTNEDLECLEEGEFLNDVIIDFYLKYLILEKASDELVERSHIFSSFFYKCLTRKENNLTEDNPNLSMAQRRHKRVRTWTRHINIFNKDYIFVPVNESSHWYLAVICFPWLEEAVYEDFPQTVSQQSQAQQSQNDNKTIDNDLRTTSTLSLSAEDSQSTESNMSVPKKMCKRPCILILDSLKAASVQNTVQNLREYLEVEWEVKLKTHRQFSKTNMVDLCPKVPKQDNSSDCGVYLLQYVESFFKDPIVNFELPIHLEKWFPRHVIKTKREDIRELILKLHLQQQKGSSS
It counts as functional.

For assay [12], the target named is Caspase-6 (Homo sapiens, UniProt P55212). The assay can be described thus: human caspase-6 inhibitors, dose response, biochemical, VEID-R110 fluorescence, cherry-pick (AID 720632).
Sequence of Caspase-6 (P55212 24-179 limits assumed): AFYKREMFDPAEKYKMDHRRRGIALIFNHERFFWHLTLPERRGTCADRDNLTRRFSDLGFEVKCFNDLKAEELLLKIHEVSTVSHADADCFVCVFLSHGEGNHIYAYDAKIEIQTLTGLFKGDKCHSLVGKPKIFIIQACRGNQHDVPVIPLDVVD
Sequence of Caspase-6 (P55212 194-293 limits assumed): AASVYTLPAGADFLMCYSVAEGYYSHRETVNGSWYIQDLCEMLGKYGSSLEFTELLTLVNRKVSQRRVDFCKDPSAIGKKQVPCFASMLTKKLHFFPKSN
Assay [13] deals with T4, Sentrin-specific protease 8 (Homo sapiens, UniProt Q96LD8).
T4 sequence (Q96LD8 whole entry): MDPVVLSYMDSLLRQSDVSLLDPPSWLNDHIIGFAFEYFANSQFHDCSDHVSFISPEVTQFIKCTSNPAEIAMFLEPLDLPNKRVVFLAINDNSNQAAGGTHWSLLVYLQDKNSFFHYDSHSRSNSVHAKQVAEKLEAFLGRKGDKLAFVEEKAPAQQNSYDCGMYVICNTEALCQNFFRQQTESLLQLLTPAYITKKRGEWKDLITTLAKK
Format: functional.

In assay [14] the target is T5, Sentrin-specific protease 6 (Homo sapiens, UniProt Q9GZR1).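 Note: Luminescence-based dose-response confirmatory assay of SENP6 inhibition, following up an ultra-high-throughput screen.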
T5 sequence (Q9GZR1 whole entry): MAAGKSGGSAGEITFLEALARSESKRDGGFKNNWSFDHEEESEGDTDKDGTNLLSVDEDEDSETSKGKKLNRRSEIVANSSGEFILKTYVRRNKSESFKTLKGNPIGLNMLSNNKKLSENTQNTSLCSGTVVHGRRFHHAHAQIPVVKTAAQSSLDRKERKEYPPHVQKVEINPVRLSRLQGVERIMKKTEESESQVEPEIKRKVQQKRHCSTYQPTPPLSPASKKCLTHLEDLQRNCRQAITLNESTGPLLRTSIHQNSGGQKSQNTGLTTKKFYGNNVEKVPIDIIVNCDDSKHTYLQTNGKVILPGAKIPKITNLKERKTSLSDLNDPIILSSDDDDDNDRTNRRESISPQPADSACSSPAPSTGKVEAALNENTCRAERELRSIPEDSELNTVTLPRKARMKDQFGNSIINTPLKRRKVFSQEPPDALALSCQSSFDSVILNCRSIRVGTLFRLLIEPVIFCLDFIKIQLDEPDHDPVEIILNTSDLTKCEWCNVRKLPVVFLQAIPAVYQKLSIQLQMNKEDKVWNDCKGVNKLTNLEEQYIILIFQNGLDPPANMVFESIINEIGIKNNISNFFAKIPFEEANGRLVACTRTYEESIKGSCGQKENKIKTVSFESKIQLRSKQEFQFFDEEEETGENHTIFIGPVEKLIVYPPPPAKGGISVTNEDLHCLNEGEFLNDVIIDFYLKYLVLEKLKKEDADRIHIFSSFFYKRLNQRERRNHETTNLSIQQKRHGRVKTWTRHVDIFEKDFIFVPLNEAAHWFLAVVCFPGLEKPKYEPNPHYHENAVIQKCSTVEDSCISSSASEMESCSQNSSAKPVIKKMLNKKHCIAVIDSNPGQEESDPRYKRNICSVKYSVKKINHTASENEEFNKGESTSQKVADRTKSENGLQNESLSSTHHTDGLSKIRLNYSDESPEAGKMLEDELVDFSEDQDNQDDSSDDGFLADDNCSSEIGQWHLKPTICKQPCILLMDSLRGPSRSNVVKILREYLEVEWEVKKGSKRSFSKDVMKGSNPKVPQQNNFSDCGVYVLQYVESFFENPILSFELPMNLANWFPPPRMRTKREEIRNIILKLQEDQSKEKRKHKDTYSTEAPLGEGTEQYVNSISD
It counts as functional.

Assay [15] in a line: inhibitors of PGC1a acetylation in cells, dose response, cell-based, cherry-picked samples (AID 720514).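 Note: potency may reflect raised or lowered acetylation signal.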 It counts as functional.
Assay [16] addresses Kallikrein-7 (Homo sapiens, UniProt P49862). The assay can be described thus: Fluorescence Intensity-based biochemical primary high throughput dose response assay to identify activators of kallikrein-7 (K7) zymogen.
Assay [17] concerns the target T6, Oxysterols receptor LXR-beta (Homo sapiens, UniProt P55055).
T6 sequence (P55055 whole entry): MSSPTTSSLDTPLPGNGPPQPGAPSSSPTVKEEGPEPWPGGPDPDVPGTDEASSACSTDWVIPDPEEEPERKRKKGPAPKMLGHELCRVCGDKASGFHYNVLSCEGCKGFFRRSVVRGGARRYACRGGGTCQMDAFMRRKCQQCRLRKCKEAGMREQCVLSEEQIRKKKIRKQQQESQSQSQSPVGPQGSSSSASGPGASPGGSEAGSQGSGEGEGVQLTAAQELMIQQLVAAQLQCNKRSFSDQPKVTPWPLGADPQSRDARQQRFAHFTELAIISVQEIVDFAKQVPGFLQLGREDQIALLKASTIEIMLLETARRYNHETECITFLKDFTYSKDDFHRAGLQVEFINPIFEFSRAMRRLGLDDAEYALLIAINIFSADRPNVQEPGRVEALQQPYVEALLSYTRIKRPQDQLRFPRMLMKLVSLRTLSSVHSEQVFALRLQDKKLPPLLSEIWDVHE
Put plainly: LXR agonists, Gal4 luciferase reporter, dose response, counter-screen for ssDAF-12 agonist project, cell-based, luminescence, HEK293, S. stercoralis campaign (AID 720737). It counts as functional. Particulars: read-out: IC50 (the source's name).

The nature of assay [18]: Luminescence-based cell-based high throughput dose response assay to identify activators of the DAF-12 from the parasite S. stercoralis (ssDAF-12). It counts as functional.
Assay [19] in a line: Late-stage results from the probe development effort to identify antagonists of arginine vasopressin receptor 1a (AVPR1a): fluorescence-based cell-based dose response OXTR inhibition counterscreen assay. Format: functional.
Assay [20] deals with Vasopressin V2 receptor (Homo sapiens, UniProt P30518). The assay can be described thus: Late-stage results from the probe development effort to identify antagonists of arginine vasopressin receptor 1a (AVPR1a): fluorescence-based cell-based dose response AVPR2 inhibition counterscreen assay. It counts as functional.
Sequence of Vasopressin V2 receptor (P30518 whole entry): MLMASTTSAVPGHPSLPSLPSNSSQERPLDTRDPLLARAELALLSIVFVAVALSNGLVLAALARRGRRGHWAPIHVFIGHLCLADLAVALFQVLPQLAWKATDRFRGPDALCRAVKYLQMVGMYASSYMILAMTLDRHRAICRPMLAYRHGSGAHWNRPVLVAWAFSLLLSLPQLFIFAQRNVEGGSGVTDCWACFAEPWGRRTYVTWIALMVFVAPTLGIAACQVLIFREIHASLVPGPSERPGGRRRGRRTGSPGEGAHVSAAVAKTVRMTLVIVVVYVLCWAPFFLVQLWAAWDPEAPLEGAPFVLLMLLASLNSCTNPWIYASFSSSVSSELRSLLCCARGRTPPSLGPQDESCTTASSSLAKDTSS
Assay [21] concerns the target Vasopressin V1b receptor (Homo sapiens, UniProt P47901). The assay can be described thus: Late-stage results from the probe development effort to identify antagonists of arginine vasopressin receptor 1a (AVPR1a): fluorescence-based cell-based dose response AVPR1b inhibition counterscreen assay. It counts as functional.
Assay [22] in a line: Late-stage results from the probe development effort to identify antagonists of arginine vasopressin receptor 1a (AVPR1a): fluorescence-based cell-based dose response AVPR1a inhibition assay. It counts as functional.
Assay [23] deals with G-protein coupled receptor 183 (Homo sapiens, UniProt P32249). Put plainly: SAR confirmation of small molecule antagonists of the EBI2 receptor via a luminescent beta-arrestin assa. Format: functional.
Sequence of G-protein coupled receptor 183 (P32249 whole entry): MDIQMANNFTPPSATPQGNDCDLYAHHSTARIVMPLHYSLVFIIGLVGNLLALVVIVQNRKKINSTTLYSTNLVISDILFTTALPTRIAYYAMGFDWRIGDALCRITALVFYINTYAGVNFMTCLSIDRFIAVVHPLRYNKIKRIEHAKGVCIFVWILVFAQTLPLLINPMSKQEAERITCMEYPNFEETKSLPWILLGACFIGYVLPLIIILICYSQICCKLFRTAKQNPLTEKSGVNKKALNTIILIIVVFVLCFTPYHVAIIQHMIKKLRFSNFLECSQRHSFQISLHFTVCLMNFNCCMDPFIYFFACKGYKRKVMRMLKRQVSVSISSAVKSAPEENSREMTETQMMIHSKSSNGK
A short description of assay [24]: Orthopox viral replication plaque formation Measured in Cell-Based and Microorganism Combination System Using Imaging - 2142-05_Inhibitor_Dose_DryPowder_Activity. It counts as functional.

Active and inactive are the calls of the source.

Sequence of Tumor necrosis factor (P01375 whole entry): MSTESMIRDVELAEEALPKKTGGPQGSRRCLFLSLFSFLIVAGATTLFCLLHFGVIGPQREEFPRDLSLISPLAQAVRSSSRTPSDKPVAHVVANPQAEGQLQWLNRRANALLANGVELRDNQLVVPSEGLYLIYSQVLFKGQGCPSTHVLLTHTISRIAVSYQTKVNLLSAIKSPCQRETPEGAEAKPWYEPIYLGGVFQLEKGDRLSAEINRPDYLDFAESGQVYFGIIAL
Sequence of Vasopressin V1b receptor (P47901 whole entry): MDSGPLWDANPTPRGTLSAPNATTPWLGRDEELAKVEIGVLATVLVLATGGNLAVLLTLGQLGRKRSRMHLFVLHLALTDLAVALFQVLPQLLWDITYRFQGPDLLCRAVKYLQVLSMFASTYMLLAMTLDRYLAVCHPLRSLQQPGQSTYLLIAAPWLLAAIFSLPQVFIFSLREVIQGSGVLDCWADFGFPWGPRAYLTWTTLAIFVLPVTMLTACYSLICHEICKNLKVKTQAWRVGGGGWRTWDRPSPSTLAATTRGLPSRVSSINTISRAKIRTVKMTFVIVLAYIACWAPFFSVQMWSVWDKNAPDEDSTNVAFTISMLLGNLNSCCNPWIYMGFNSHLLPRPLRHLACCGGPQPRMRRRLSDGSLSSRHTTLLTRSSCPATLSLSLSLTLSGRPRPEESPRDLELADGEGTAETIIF
Sequence of Kallikrein-7 (P49862 whole entry): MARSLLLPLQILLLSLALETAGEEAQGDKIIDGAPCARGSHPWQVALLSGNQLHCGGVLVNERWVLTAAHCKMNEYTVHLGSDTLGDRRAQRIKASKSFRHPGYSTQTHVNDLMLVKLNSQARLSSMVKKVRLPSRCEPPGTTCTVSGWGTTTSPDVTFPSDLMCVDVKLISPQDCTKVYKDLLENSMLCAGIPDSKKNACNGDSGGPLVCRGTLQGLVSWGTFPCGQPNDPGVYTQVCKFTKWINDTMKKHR
Sequence of ELAV-like protein 1 (Q15717 whole entry): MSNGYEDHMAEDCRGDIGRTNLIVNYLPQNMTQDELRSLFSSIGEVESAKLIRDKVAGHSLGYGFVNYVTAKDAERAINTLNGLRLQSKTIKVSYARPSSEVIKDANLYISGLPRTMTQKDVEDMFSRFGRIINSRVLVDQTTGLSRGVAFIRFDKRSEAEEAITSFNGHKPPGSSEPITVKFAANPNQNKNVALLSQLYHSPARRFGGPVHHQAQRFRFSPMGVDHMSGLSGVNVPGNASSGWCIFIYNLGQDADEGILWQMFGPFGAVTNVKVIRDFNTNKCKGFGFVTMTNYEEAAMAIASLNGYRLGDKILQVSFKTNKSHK

Turning to `O=C(Nc1cccc([N+](=O)[O-])c1)c1ccc2ccccc2c1O`, the IC50 is 97.4 µM (inactive) in assay [1]; 6.08 µM (inactive) in [2]; 6.83 µM (active) in [3]; > 20 µM (inactive) in assay [4]; 13.2 µM (active) in [5]; 4.36 µM (active) in assay [6]. The half-maximal inhibitory concentration (IC50) in assay [7] was 4.72 µM (active). Moreover, the EC50 in assay [8] is 3.05 µM (active).

`COc1cc2c(C#N)c(N3CCCC3)nc(N)c2c(N)n1`: the IC50 in assay [9] was 7.35 µM (active); in assay [11], 2.67 µM (active); in assay [13], 2.64 µM (active); in assay [14], 2.24 µM (active). Moreover, the AC50 in [10] is 5.72 µM (active); in assay [12], 12 µM (active).

As to `N#Cc1c(N)c(C(=O)c2ccccc2)n2ccccc12`, the AC50 in [15] was 25.7 µM (active).

Regarding `COc1cc2c(cc1OC)C1CCN3C(=O)CCC3N1CC2` (centres undefined), in [16], the EC50 was 21.1 µM (inactive).

Turning to `COc1ccc(C(=O)c2ccccc2)cc1`, the EC50 in [17] is > 67.6 µM (inactive). Further, the IC50 in [18] was > 67.6 µM (inactive).

For the compound `COc1ccc(N(CC2CC2)C(=O)N2CCN(c3ccccc3C)CC2)cc1`, the IC50 in assay [19] is 0.051 µM (active); in assay [20], 3.51 µM (active); in assay [21], 5.8 µM (active); in [22] it was 0.0038 µM (active).

As for `O=C(/C=C/c1ccc(Br)cc1)N1CCN(C(=O)C2CCCC2)CC1`, the IC50 in [23] is 0.00441 µM (active).

For `C[C@@H](O)C#Cc1ccc2c(c1)O[C@@H](CN(C)S(=O)(=O)c1ccc(-c3ccccc3)cc1)[C@@H](C)CN([C@@H](C)CO)S2(=O)=O`, the AC50 in assay [24] was 12.3 µM (active).

These data come from ChEMBL document CHEMBL1201862, “PubChem BioAssay data set” (2004).
